The record followed here is patent US20100041756A1, “METHOD OF MODULATING B CELL FUNCTIONING” (priority 2004, published 2010).

Like-named read-outs stand apart in the source and are kept apart here.

The test system of test [1] is inguinal lymph node cells. Briefly: Cytokine production by draining (inguinal) lymph node cells of treated CIA mice (ELISA). It counts as in vivo, mouse. The following applies: for IL-5 production by lymph node cells: treated mice (FIG. 8). The method, then: FIG. 8 is a graphical representation depicting that mice with established CIA were treated for 10 days with 3,4-DAA or vehicle control. Mice were then killed and draining (inguinal) lymph node cells were cultured for 72 h in the absence or presence of type II collagen.
Inguinal lymph nodes were excised from Tranilast-treated and control mice. Alternatively, inguinal lymph nodes were removed from untreated arthritic mice (day 1-5 of arthritis) and Tranilast was added in vitro. In both cases, LNC were cultured in RPMI 1640 containing FCS (10% v/v), 2-mercaptoethanol (20 μM), L-glutamine (1% w/v), penicillin (100 U/ml) and streptomycin (100 μg/ml) in the presence or absence of type II collagen (50 μg/ml). Secreted cytokines (IFN-γ, IL-5, TNFα and IL-10) were measured after 72 h. by ELISA. In brief, 96 well ELISA plates were coated with the respective capture antibody, blocked with bovine serum albumin (2% w/v), and then incubated with LNC culture supernatants (neat) overnight at 4° C. After washing, bound cytokines were detected using biotinylated detect antibodies. A standard curve was generated using known concentrations of the appropriate recombinant cytokine and the concentrations of cytokines present in culture supernatants were estimated by reference to the standard curve.
(In an ELISA, binding on a coated surface is turned into a signal by an enzyme label.)

The subject of test [2] is B cells stimulated with anti-CD40. Nature of the test: Purified B cell proliferation, anti-CD40, 3H-thymidine incorporation (Example 4). It counts as cell-based, mouse. The method, then: FIG. 10 is a graphical representation depicting that 3,4-DAA and 3-HAA inhibit B and T cell proliferation in vitro. Purified B and T cells were stimulated for 72 h with anti-CD40 (a), or anti-CD3/anti-CD28 (b) respectively, in the presence of varying doses of 3,4-DAA, or 3-HAA.
A single cell suspension was prepared from spleen by mincing through a cell strainer, and erythrocytes were lysed using an ammonium chloride solution (Sigma, St Louis, Mo., USA). B cells were positively enriched by using anti-IgM MACS microbeads, and T cells were positively enriched using anti-CD4 MACS microbeads and the MACS system, according to the manufacturer's guidelines (Miltenyi Biotec, Bergisch Gladbach, Germany). Purity was assessed by flow cytometric analysis (B cell>90% CD19+, T cell>90% CD4+). Cells were cultured at 5×10^5 cells/ml in 200 μl complete RPMI, as above, in a flat bottom 96-well plate and cultured for 72 h. B cells were stimulated with anti-CD40 monoclonal antibody (10 μg/ml; BD), and T cells were stimulated with 5 μg/ml plate-bound anti-CD3 (BD), 5 μg/ml soluble anti-CD28 (BD). Tranilast, 3-HAA, or vehicle (DMSO) were incubated at concentrations stated with the cultures. 48 hours after stimulation, 100 μl culture medium was collected, and cells were pulsed with 1 μCi ^3H thymidine per well for 18 h. Cells were then harvested and plates assessed for incorporation. Each assay was performed on a minimum of 3 occasions. Data shown is of one representative experiment, and is expressed as mean+/−SD of triplicate in culture. IFN-γ, IL-10 and IL-5 levels was assessed in the culture medium by ELISA, as above.
In general terms: Dividing cells build labelled thymidine or BrdU into new DNA.

The test system of test [3] is B cells activated with LPS, anti-CD40 or anti-IgM antibody. Nature of the test: B cell proliferation, 3[H]thymidine incorporation (Example 3). It counts as cell-based, mouse. To be noted: for anti-IgM induced proliferation: 12.5-100 μg/ml; for inhibition at 100 µg/mL: Mus musculus, B-cell, 100 μg/ml. The method, then:
FIG. 4 is a graphical representation depicting that B cell proliferation induced by LPS and anti-CD40 is inhibited by Tranilast. B-cells were activated in vitro with LPS or anti-CD40 antibody and 6.25-100 μg/ml tranilast. Proliferation was assessed using ^3[H]thymidine incorporation. LPS and anti-CD40 induced a 92- and 258-fold increase in thymidine incorporation respectively.
FIG. 5 is a graphical representation depicting that B cell proliferation induced by LPS and anti-CD40 and anti-IgM is inhibited by tranilast. B-cells were activated in vitro with LPS or anti-CD40 antibody or anti-IgM antibody, and 12.5-100 μg/ml tranilast. Proliferation was assessed using ^3[H]thymidine incorporation. LPS, anti-CD40 and anti-IgM induced 91- and 81- and 60-fold increases in thymidine incorporation respectively.
B cells were prepared from mouse spleen using rat anti-mouse IgM microbeads and the MACS system.
3 spleens were removed from male DBA/1 mice aged 8-12 weeks. A single cell suspension was prepared by cell-sieve.
Cells were cultured at 1×10^6 cells/ml in 200 μl complete RPMI with glutamine (10% FCS, 1% Pen/Strep, 50 μM 2-Mercaptoethanol, 1 mM Na-Pyruvate) in a 96-well plate for 48 h in the presence of LPS (20 μg/ml), azide-free anti-CD40 monoclonal antibody (10 μg/ml), or azide free F(ab′)2 fragment of anti-IgM monoclonal antibody (20 μg/ml) and 100-6.25 μg/ml tranilast, or vehicle (DMSO).
1 μCi ^3[H]thymidine was added to each well and incubated overnight. Cells were harvested onto a pre-wet filter mat using a Skaton cell harvester. The filter mat was dried in a microwave for 2 minutes at 750 W. The dry filter mat was sealed in a bag using a plate sealer, and the corner cut. 10 ml scintillation fluid was placed in the bag, and spread evenly over the filter mat. The bag was re-sealed and read in a Wallac 1205 plate reader.

With `COc1ccc(/C=C/C(=O)Nc2ccccc2C(=O)O)cc1OC` [Tranilast, 2-[[3-(3,4-dimethoxyphenyl)-1-oxo-2-propenyl]amino]benzoic acid], the “IFN-γ production by lymph node cells” value in test [1] (cultured 72 h, mice given 400 mg/kg for 10 days (FIG. 8)) is reported as “significantly reduced”. Besides, the “IL-5 production by lymph node cells” value in test [1] (cultured 72 h) is on record as “unaffected”; in test [1] (cultured 72 h, listed as 3,4-DAA) it was “significantly reduced”. For the same molecule, the “cytokine production on restimulation with collagen” value in test [1] (cultured 72 h in the presence of type II collagen (FIG. 8)) is on record as “differences between the groups were not significant”. For the same molecule, in test [2] (Mus musculus, B-cell, anti-CD40, 72 h, 3H-thymidine (FIG. 10A), read-out: IC50 for inhibition of B cell proliferation), the IC50 stood at 73.1 µM. For the same molecule, the B cell proliferation entry in test [2] (anti-CD40, varying doses (FIG. 10A)) was “dose-dependently inhibited”. The “B cell proliferation induced by LPS or anti-CD40” value is “significantly inhibited” in test [3] (37.5 μg/ml, FIG. 5); “significantly inhibited” in test [3] (100 μg/ml and 50 μg/ml, FIG. 4). The anti-IgM induced proliferation result in test [3] (FIG. 5) is recorded as “effective at all doses assessed”; in test [3] (FIG. 5, listed as tranilast), “all doses tested inhibited”. In addition, the inhibition at 100 µg/mL in test [3] (FIG. 4, read-out: inhibition of B cell proliferation induced by LPS) worked out at 99%; in test [3] (FIG. 4, read-out: inhibition of B cell proliferation induced by anti-CD40), 97%; in test [3] (FIG. 5, read-out: maximum inhibition of B cell proliferation (LPS)) it was 96%; in test [3] (FIG. 5, read-out: maximum inhibition of B cell proliferation (anti-CD40)), 91%; in test [3] (FIG. 5, read-out: maximum inhibition of B cell proliferation (anti-IgM)) it was 98%.
